Experimental data published in patent publication US20150218141A1, “SUBSTITUTED CARBAMATE COMPOUNDS” (HOFFMANN-LA ROCHE INC, priority 2012, published 2015).
Structures can show the parent of a compound that is named as a salt.

target: T1, hTRPA1 (Homo sapiens, UniProt O75762); assay: IC50 determination, dose response calcium flux (FLIPR) assay, ChanTest hTRPA1-CHO stably transfected cell line; format: cell-based; conditions: CHO-K1 Tet-On hTRPA1 cells, 30' preincubation, agonist cinnamaldehyde final 100 uM
T1 construct: host or cells: CHO-K1 Tet-On, Clone 20 (Chinese Hamster Ovary cells, inducible expression)
Description: IC50 Determination of Exemplified Compounds Dose Response Assay: ChanTest hTRPA1-CHO Stably Transfected Cell Line
CHO-K1 Tet-On_HOMSA_TRPA1_Clone—20
Growth Media for CHO-K1 Tet-On_HOMSA_TRPA1_Clone—20 • Ham's F-12 with 10% tetracycline-free FBS • 1× penicillin-streptomycin • 1× glutamax • 0.01 mg/ml Blasticidin • 0.40 mg/ml Zeocin • The cell line doubling rate was ˜15 hours. […] Experiments were run at 24 hours post induction.
Plating Conditions CHOK1/TRPA1 Cells: • Harvested cells with 0.025% trypsin/EDTA. • Resuspended cells in growth media without selection antibiotics. • Measured cell density and diluted to 2.4×10^5 cells/ml in media containing 1 ug/ml Doxycycline Plate 25 ul/well into 384 well black/clear tissue culture-treated plates. • Incubated overnight at 37° C.
Reagents: • Replacement Buffer: Hank's Balanced Salt Solution, 20 mM HEPES along with 0.005% BSA and 2× Probenecid • Dye Loading Buffer: Cal-3 NW Calcium dye was prepared by dissolving the contents of one vial with […] Hank's Balanced Salt Solution containing 20 mM HEPES. • Control compounds for CHOK1/TRPA1 cells: AP-18, stock 10 mM, prepare 3.5× compound dilution in a Compound Buffer (HBSS/20 mM HEPES/0.005% BSA)—final concentration 10 uM.
Preparation of Cinnamaldehyde (Agonist Addition):
• Specific gravity=1.046 gm/cc • 1.32 gm/1.046 gm/cc=1.26 ml of stock • Add 1.74 ml DMSO=3.3 M stock • Working solution 4.5× (final 100 uM in Compound Buffer: HBSS/20 mM HEPES/0.005% BSA)
Compounds dilutions were prepared from 5 or 10 mM stock (100% DMSO): • Adjustments of volumes and concentrations were made at time of titration to reflect desired final assay concentrations. • Compounds were tested at either 20 μM three folds dilution 11 steps out or 30 μM two folds dilution 11 steps out. • 3 μl of diluted compound were transferred into Weidmann 384-well plate in duplicates side-by-side.
Compound plates were resuspended with 100 ul of HBSS/20 mM HEPES/0.005% BSA buffer (Compound Buffer):
Growth media was removed from the cell plates (20 ul) and 20 ul of the Replacement Buffer was added followed by addition of 25 ul of diluted dye. All three steps were performed using a Plate Washer BioTek 407. The plates were then incubated for 30′ at RT.
After incubation, both the cell and compound plates were brought to the FLIPR and 20 ul of the diluted compounds/antagonist/bk were transferred to the cell plates by the FLIPR. Plates were then incubated for 30′ at room temperature. After 30′ incubation, plates were returned to the FLIPR and 20 ul of 4.5× Cinnamaldehyde was added to the cell plates. During the compound addition as well as agonist addition, fluorescence readings were taken simultaneously from all 384 wells of the cell plate every 1.5 seconds. Five readings were taken to establish a stable baseline, then 20 ul of sample was rapidly (30 ul/sec) and simultaneously added to each well of the cell plate. The fluorescence was continuously monitored before, during and after sample/agonist addition for a total elapsed time of 100 seconds (compound addition) and 120 seconds (agonist addition). Responses (increase in peak fluorescence) in each well following agonist addition was determined. The initial fluorescence reading from each well, prior to ligand stimulation, was used a zero baseline value for the data from that well.

T1 sequence (O75762 whole entry): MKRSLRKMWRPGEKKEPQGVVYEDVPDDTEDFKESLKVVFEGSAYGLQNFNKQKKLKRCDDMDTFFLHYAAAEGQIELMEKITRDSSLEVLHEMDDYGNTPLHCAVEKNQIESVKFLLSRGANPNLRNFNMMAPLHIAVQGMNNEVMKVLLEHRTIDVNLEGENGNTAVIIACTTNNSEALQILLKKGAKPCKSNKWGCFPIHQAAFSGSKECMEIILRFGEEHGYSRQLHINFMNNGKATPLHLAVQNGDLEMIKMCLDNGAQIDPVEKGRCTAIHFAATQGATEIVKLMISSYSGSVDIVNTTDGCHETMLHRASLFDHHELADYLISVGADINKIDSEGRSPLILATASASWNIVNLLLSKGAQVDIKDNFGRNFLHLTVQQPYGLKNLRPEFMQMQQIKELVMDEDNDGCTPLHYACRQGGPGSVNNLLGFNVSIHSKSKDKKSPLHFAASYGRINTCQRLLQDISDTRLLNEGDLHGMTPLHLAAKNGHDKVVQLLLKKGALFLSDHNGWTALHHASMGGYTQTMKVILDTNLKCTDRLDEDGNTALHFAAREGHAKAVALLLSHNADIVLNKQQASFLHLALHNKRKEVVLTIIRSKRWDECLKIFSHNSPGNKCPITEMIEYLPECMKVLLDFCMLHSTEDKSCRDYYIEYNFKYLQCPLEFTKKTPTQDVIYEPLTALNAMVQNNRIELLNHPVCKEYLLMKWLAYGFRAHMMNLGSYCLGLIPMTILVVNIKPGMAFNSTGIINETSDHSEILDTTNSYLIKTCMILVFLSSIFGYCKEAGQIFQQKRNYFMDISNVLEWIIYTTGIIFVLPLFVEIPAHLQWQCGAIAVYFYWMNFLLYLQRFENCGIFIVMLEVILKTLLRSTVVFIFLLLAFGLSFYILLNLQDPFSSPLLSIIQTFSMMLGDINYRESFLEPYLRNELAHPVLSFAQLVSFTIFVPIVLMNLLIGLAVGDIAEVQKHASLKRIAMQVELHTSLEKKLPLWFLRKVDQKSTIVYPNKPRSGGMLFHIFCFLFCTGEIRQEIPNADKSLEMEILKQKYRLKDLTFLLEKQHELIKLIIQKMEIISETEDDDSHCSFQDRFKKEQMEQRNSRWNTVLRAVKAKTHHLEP

Compound	IC50
O=C(Nc1ccc(Cl)cc1)O[C@@H](CN1CCCC(Oc2ccccc2)C1)C(F)(F)F (stereo partly drawn) [Example 40, (4-Chlorophenyl)-carbamic acid (S)-2,2,2-trifluoro-1-(3-phenoxypiperidin-1-ylmethyl)-ethyl ester hydrochloride]	0.191 µM
O=C(Nc1ccc(Cl)cc1)O[C@@H](CN1CCCC(c2cccc(F)c2)C1)C(F)(F)F (stereo partly drawn) [Example 41, (4-Chlorophenyl)-carbamic acid (S)-2,2,2-trifluoro-1-[3-(3-fluorophenyl)-piperidin-1-ylmethyl]-ethyl ester hydrochloride]	0.32 µM
O=C(Nc1ccc(Cl)cc1)O[C@@H](CN1CCCC(c2ccc(F)cc2)C1)C(F)(F)F (stereo partly drawn) [Example 42, (4-Chlorophenyl)-carbamic acid (S)-2,2,2-trifluoro-1-[3-(4-fluorophenyl)-piperidin-1-ylmethyl]-ethyl ester hydrochloride]	0.444 µM
CCOc1cccc(C2CCCN(C[C@H](OC(=O)Nc3ccc(Cl)cc3)C(F)(F)F)C2)c1 (stereo partly drawn) [Example 43, (4-Chlorophenyl)-carbamic acid (S)-1-[3-(3-ethoxyphenyl)-piperidin-1-ylmethyl]-2,2,2-trifluoroethyl ester hydrochloride]	0.298 µM
O=C(Nc1ccc(Cl)cc1)O[C@@H](CN1CCCC(Sc2ccccc2)C1)C(F)(F)F (stereo partly drawn) [Example 44, (4-Chlorophenyl)-carbamic acid (S)-2,2,2-trifluoro-1-(3-phenylsulfanyl-piperidin-1-ylmethyl)-ethyl ester hydrochloride]	0.172 µM
O=C(Nc1ccc(Cl)cc1)O[C@@H](CN1CCCC(Oc2ccc(Cl)cc2)C1)C(F)(F)F (stereo partly drawn) [Example 45, (4-Chlorophenyl)-carbamic acid (S)-1-[3-(4-chlorophenoxy)-piperidin-1-ylmethyl]-2,2,2-trifluoroethyl ester hydrochloride]	0.139 µM
N#Cc1ccc(OC2CCCN(C[C@H](OC(=O)Nc3ccc(Cl)cc3)C(F)(F)F)C2)cc1 (stereo partly drawn) [Example 46, (4-Chlorophenyl)-carbamic acid (S)-1-[3-(4-cyanophenoxy)-piperidin-1-ylmethyl]-2,2,2-trifluoroethyl ester hydrochloride]	0.411 µM
N#Cc1cccc(OC2CCCN(C[C@H](OC(=O)Nc3ccc(Cl)cc3)C(F)(F)F)C2)c1 (stereo partly drawn) [Example 47, (4-Chlorophenyl)-carbamic acid (S)-1-[3-(3-cyanophenoxy)-piperidin-1-ylmethyl]-2,2,2-trifluoroethyl ester hydrochloride]	0.219 µM
O=C(Nc1ccc(Cl)cc1)O[C@@H](CN1CCCC(Oc2ccc(F)cc2)C1)C(F)(F)F (stereo partly drawn) [Example 48, (4-Chlorophenyl)-carbamic acid (S)-1-[3-(4-fluorophenoxy)-piperidin-1-ylmethyl]-2,2,2-trifluoroethyl ester hydrochloride]	0.147 µM
COc1cccc(OC2CCCN(C[C@H](OC(=O)Nc3ccc(Cl)cc3)C(F)(F)F)C2)c1 (stereo partly drawn) [Example 49, (4-Chlorophenyl)-carbamic acid (S)-1-[3-(3-methoxyphenoxy)-piperidin-1-ylmethyl]-2,2,2-trifluoroethyl ester hydrochloride]	0.408 µM
O=C(Nc1ccc(Cl)cc1)O[C@@H](CN1CCCC(Oc2cccc(OC(F)(F)F)c2)C1)C(F)(F)F (stereo partly drawn) [Example 50, (4-Chlorophenyl)-carbamic acid (S)-2,2,2-trifluoro-1-[3-(3-trifluoromethoxyphenoxyl)piperidin-1-ylmethyl]-ethyl ester hydrochloride]	0.0551 µM
O=C(Nc1ccc(Cl)cc1)O[C@@H](CN1CCCC(COc2ccc(F)cc2)C1)C(F)(F)F (stereo partly drawn) [Example 51, (4-Chlorophenyl)-carbamic acid (S)-2,2,2-trifluoro-1-[3-(4-fluorophenoxymethyl)-piperidin-1-ylmethyl]-ethyl ester hydrochloride]	0.178 µM
O=C(Nc1ccc(Cl)cc1)O[C@@H](CN1CCC[C@H](Oc2ccc(Cl)cc2)C1)C(F)(F)F [Example 52a, (4-Chlorophenyl)-carbamic acid (S)-1-[(S)-3-(4-chlorophenoxy)-piperidin-1-ylmethyl]-2,2,2-trifluoroethyl ester hydrochloride]	0.114 µM
O=C(Nc1ccc(Cl)cc1)O[C@@H](CN1CCC[C@@H](Oc2ccc(Cl)cc2)C1)C(F)(F)F [Example 52b, (4-Chlorophenyl)-carbamic acid (S)-1-[(R)-3-(4-chlorophenoxy)-piperidin-1-ylmethyl]-2,2,2-trifluoroethyl ester hydrochloride]	0.961 µM
O=C(Nc1ccc(Cl)cc1)O[C@@H](CN1CCCC(c2ccccn2)C1)C(F)(F)F (stereo partly drawn) [Example 53, (4-Chlorophenyl)-carbamic acid (S)-2,2,2-trifluoro-1-(3′,4′,5′,6′-tetrahydro-2′H-[2,3′]bipyridinyl-1′-ylmethyl)-ethyl ester hydrochloride]	1.92 µM
N#Cc1ccnc(OC2CCCN(C[C@H](OC(=O)Nc3ccc(Cl)cc3)C(F)(F)F)C2)c1 (stereo partly drawn) [Example 54, (4-Chlorophenyl)-carbamic acid (S)-1-[3-(4-cyanopyridin-2-yloxy)-piperidin-1-ylmethyl]-2,2,2-trifluoroethyl ester hydrochloride]	0.596 µM
O=C(Nc1ccc(Cl)cc1)O[C@@H](CN1CCCC(OCc2cccnc2)C1)C(F)(F)F (stereo partly drawn) [Example 55, (4-Chlorophenyl)-carbamic acid (S)-2,2,2-trifluoro-1-[3-(pyridin-3-ylmethoxy)-piperidin-1-ylmethyl]-ethyl ester hydrochloride]	0.803 µM
O=C(Nc1ccc(Cl)cc1)O[C@@H](CN1CCCC(c2cccc(C(F)(F)F)n2)C1)C(F)(F)F (stereo partly drawn) [Example 56, (4-Chlorophenyl)-carbamic acid (S)-2,2,2-trifluoro-1-(6-trifluoromethyl-3′,4′,5′,6′-tetrahydro-2′H-[2,3′]bipyridinyl-1′-ylmethyl)-ethyl ester hydrochloride]	0.246 µM
O=C(Nc1ccc(Cl)cc1)O[C@@H](CN1CCCC(c2ccc(C(F)(F)F)nc2)C1)C(F)(F)F (stereo partly drawn) [Example 57, (4-Chlorophenyl)-carbamic acid (S)-2,2,2-trifluoro-1-(6′-trifluoromethyl-3,4,5,6-tetrahydro-2H-[3,3′]bipyridinyl-1-ylmethyl)-ethyl ester hydrochloride]	0.342 µM
O=C(Nc1ccc(Cl)cn1)O[C@@H](CN1CCC[C@H](c2cccc(C(F)(F)F)c2)C1)C(F)(F)F [Example 58, (5-Chloropyridin-2-yl)-carbamic acid (S)-2,2,2-trifluoro-1-[(R)-3-(3-trifluoromethyl-phenyl)-piperidin-1-ylmethyl]-ethyl ester hydrochloride]	0.174 µM
O=C(Nc1ccc(Cl)cn1)O[C@@H](CN1CCCC(c2cccc(C(F)(F)F)c2)C1)C(F)(F)F (stereo partly drawn) [Example 59, (5-Chloropyridin-2-yl)-carbamic acid (S)-2,2,2-trifluoro-1-[3-(3-trifluoromethylphenyl)-piperidin-1-ylmethyl]-ethyl ester hydrochloride]	0.27 µM
COc1cccc(C2CCCN(C[C@H](OC(=O)Nc3ccc(Br)cc3)C(F)(F)F)C2)c1 (stereo partly drawn) [Example 60, (4-Bromophenyl)-carbamic acid (S)-2,2,2-trifluoro-1-[3-(3-methoxyphenyl)-piperidin-1-ylmethyl]-ethyl ester hydrochloride]	0.365 µM
COc1cccc(C2CCCN(C[C@H](OC(=O)Nc3ccc(F)cc3)C(F)(F)F)C2)c1 (stereo partly drawn) [Example 61, (4-Fluorophenyl)-carbamic acid (S)-2,2,2-trifluoro-1-[3-(3-methoxyphenyl)-piperidin-1-ylmethyl]-ethyl ester hydrochloride]	0.273 µM
CS(=O)(=O)c1cccc(C2CCCN(C[C@H](OC(=O)Nc3ccc(Cl)cc3)C(F)(F)F)C2)c1 (stereo partly drawn) [Example 62, (4-Chlorophenyl)-carbamic acid (S)-2,2,2-trifluoro-1-[3-(3-methanesulfonylphenyl)-piperidin-1-ylmethyl]-ethyl ester hydrochloride]	1.16 µM
